# PMC3654088 (Cell metabolism, 2013)
# Biological target: T1, Tam41 (Saccharomyces cerevisiae, UniProt P53230)
# T1 sequence (P53230 27-385): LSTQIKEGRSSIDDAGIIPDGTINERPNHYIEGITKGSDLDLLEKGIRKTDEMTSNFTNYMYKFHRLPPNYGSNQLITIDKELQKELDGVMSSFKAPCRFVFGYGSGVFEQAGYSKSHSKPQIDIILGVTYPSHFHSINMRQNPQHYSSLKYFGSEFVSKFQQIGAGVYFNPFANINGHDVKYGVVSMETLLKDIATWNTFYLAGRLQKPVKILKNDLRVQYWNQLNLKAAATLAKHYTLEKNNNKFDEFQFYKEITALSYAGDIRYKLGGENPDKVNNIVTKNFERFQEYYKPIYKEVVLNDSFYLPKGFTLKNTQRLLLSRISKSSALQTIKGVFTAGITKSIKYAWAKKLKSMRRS
# Experiment: CDP-DAG formation, TLC with fluorescence imaging
# Type: biochemical
# Conditions: 2 mM CTP; 2 mM MgCl2; Tris-HCl pH 7.5; 0.2% Triton X-100; 30 °C; 10 min; labelled compound
substance,measurement,value
NBD-PA,Km,67 ± 10 µM
